The subject of one experiment is MCF7 cells. In words: Whole cell cytotoxicity assay: Sulforhodamine B. Type of experiment: cell-based, human. The note with it: Homo sapiens; compound at 100 μM; MCF7 cell growth; 48 hours with drug; SRB staining. As to the method:
The following procedure can be found on the Developmental Therapeutics Program NCI/NIH web site at http://dtp.nci.nih.gov/brancehes/btb/ivclsp.html.
1. Human tumor cell lines of HT29, A549 and MCF7 are grown in DMEM containing 10% fetal bovine serum and 2 mM L-glutamine. Cells are plated in a 96 well plate at a density of 5000 cells per well in 100 μL of growth medium and incubated at 37° C., 5% CO2, for 24 hours prior to the addition of experimental compounds.
2. Experimental drugs are solubilized in DMSO for a final concentration of 20 mM immediately prior to use. Drugs are further diluted in growth media for a total of nine drug concentrations and a growth control. At the 24 hour time point, one plate of cells is fixed in situ with TCA as a measurement of the cell population at time zero, or the time of drug addition.
3. The plates are further incubated with drug for an additional 48 hours.
4. The cells are fixed in situ by gently aspirating off the culture media and then adding 50 μL of ice cold 10% TCA per well and incubated at 4° C. for 60 minutes. The plates are washed with tap water five times and allowed to air dry for 5 minute.
5. 50 μL of a 0.4% (w/v) Sulforhodamine B solution in 1% (v/v) acetic acid is added per well and incubated for 30 minutes at room temperature.
6. Following staining, plates are washed five times with 1% acetic acid to remove any unbound dye and then allowed to air dry for 5 minutes.
7. Stain is solubilized with 100 μL of 10 mM Tris pH 10.5 per well and placed on an orbital rotator for 5 minutes.
8. Absorbance is read at 570 nm.
A general note: Sulforhodamine B stains cellular protein and so reports cell mass.

For experiment [1], the system named is Histone deacetylase (HDAC), HeLa cell nuclear extract. In words: In vitro fluorescent histone deacetylase assay (Biomol kit, HeLa cell nuclear extract). It counts as biochemical. The note with it: compound at 100 μM; HeLa cell nuclear extract as HDAC source; substrate 50 μM; 10 min at room temperature. As to the method: Histone deacetylase (HDAC) activity assays were performed using the HDAC fluorescent activity assay/drug discovery kit (Biomol Research Laboratories, Plymouth Meeting, Pa.) essentially according to the manufacturer's instructions. The included HeLa cell nuclear extract, which contains a mosaic of HDAC enzymes and other nuclear factors, was used as the source of HDAC activity. The final substrate concentration in the assay mixture was 50 μM. The reaction was allowed to proceed for 10 min at room temperature before stopping the reaction. Test compounds were prepared as 20 mM stock solutions in DMSO (Molecular Biology grade, Sigma-Aldrich Co. St. Louis, Mo.) and stored at −70° C. Serial dilutions of test compounds were prepared in assay buffer immediately prior to testing. DMSO was determined in a separate trial to have no significant effect on the activity of this assay at concentrations up to 5%; the final DMSO concentration in the wells was no more than 2% and therefore DMSO effects were safely neglected. Assays were performed in white polystyrene 96-well half-area assay plates (Corning, Corning, N.Y.) and measured on a Wallace 1420 fluorescent plate reader (Wallac Oy, Turku, Finland) with an excitation wavelength of 355 nm, an emission wavelength of 460 nm, and a 1 sec signal averaging time.

The values that follow come from patent publication US20050197336A1 (Miikana Therapeutics Corporation, priority 2004, published 2005).

Molecules are shown by their SMILES.

On to `CN(C)S(=O)(=O)N1CCN(c2ncc(C(=O)NO)s2)CC1` [Example 14, 2-[4-(N,N-dimethylsulfonyl)-piperazin-1-yl]-thiazole-5-carboxylic acid hydroxyamide], for which the inhibition (as a rule, the percentage by which the read-out fell short of the control) at 100 µM in the experiment on MCF7 cells came to 89.8%. Moreover, in experiment [1], the “% inhibition HDAC @ 100 μM” value came out at 98%.

Compound `CC(C)c1ccc(S(=O)(=O)N2CCN(c3ncc(C(=O)NO)s3)CC2)cc1` [Example 16, 2-[4-(4-isopropylphenylsulfonyl)-piperazin-1-yl]-thiazole-5-carboxylic acid hydroxyamide] returned an inhibition at 100 µM in the experiment with MCF7 cells of 90.9%. In addition, the “% inhibition HDAC @ 100 μM” value in experiment [1] is 100%.

In the experiment with MCF7 cells, `O=C(NO)c1cnc(N2CCN(S(=O)(=O)c3cccc(Cl)c3)CC2)s1` [Example 18, 2-[4-(3-chlorophenylsulfonyl)-piperazin-1-yl]-thiazole-5-carboxylic acid hydroxyamide] displayed an inhibition at 100 µM of 96.6%. The “% inhibition HDAC @ 100 μM” value in experiment [1] is given as 95%.

For `CS(=O)(=O)c1ccc(S(=O)(=O)N2CCN(c3ncc(C(=O)NO)s3)CC2)cc1` [Example 19, 2-[4-(4-methylsufonylphenylsulfonyl)-piperazin-1-yl]-thiazole-5-carboxylic acid hydroxyamide], in the experiment on MCF7 cells, the inhibition at 100 µM is 76.5%. In experiment [1], the “% inhibition HDAC @ 100 μM” value is 99%.

Regarding `O=C(NO)c1cnc(N2CCN(S(=O)(=O)/C=C/c3ccccc3)CC2)s1` [Example 20, 2-[4-(trans-2-phenylethanelsulfonyl)piperazin-1-yl]-thiazole-5-carboxylic acid hydroxyamide], at 100 µM the inhibition with MCF7 cells was 97.9%. Also, the “% inhibition HDAC @ 100 μM” value in experiment [1] is on record as 97%.

With `Cc1ccccc1S(=O)(=O)N1CCN(c2ncc(C(=O)NO)s2)CC1` [Example 21, 2-[4-(2-methylphenylsulfonyl)piperazin-1-yl]-thiazole-5-carboxylic acid hydroxyamide], in the experiment on MCF7 cells, the inhibition at 100 µM was determined as 97.1%. Besides, the “% inhibition HDAC @ 100 μM” value in experiment [1] worked out at 100%.

Regarding `Cc1cccc(S(=O)(=O)N2CCN(c3ncc(C(=O)NO)s3)CC2)c1` [Example 22, 2-[4-(3-methylphenylsulfonyl)-piperazin-1-yl]-thiazole-5-carboxylic acid hydroxyamide], the inhibition at 100 µM in the experiment on MCF7 cells amounted to 98%. Also, the “% inhibition HDAC @ 100 μM” value in experiment [1] was determined as 100%.

Consider `CCCc1ccc(S(=O)(=O)N2CCN(c3ncc(C(=O)NO)s3)CC2)cc1` [Example 23, 2-[4-(4-n-propylphenylsulfonyl)-piperazin-1-yl]-thiazole-5-carboxylic acid hydroxyamide], for which, in the experiment with MCF7 cells, the inhibition at 100 µM came out at 96.7%. For the same compound, in experiment [1], the “% inhibition HDAC @ 100 μM” value is 99%.

Compound `Cc1cc(C)cc(S(=O)(=O)N2CCN(c3ncc(C(=O)NO)s3)CC2)c1` [Example 24, 2-[4-(3,5-dimethylphenylsulfonyl)-piperazin-1-yl]-thiazole-5-carboxylic acid hydroxyamide] returned an inhibition at 100 µM with MCF7 cells of 95.3%. Besides, in experiment [1], the “% inhibition HDAC @ 100 μM” value is recorded as 100%.

In turn, `CC(C)(C)c1ccc(S(=O)(=O)N2CCN(c3ncc(C(=O)NO)s3)CC2)cc1` [Example 25, 2-[4-(4-t-butylphenylsulfonyl)-piperazin-1-yl]-thiazole-5-carboxylic acid hydroxyamide] had an inhibition at 100 µM in the experiment on MCF7 cells of 90.1%. Further, the “% inhibition HDAC @ 100 μM” value in experiment [1] came to 98%.

In the experiment on MCF7 cells, `O=C(NO)c1cnc(N2CCN(S(=O)(=O)Cc3ccccc3)CC2)s1` [Example 26, 2-[4-(benzylsulfonyl)piperazin-1-yl]-thiazole-5-carboxylic acid hydroxyamide] showed an inhibition at 100 µM of 90%. The “% inhibition HDAC @ 100 μM” value in experiment [1] worked out at 98%.

Compound `Cc1noc(C)c1S(=O)(=O)N1CCN(c2ncc(C(=O)NO)s2)CC1` [Example 27, 2-[4-(3,5-dimethylisoxazolesulfonyl)-pipiperazin-1-yl]-thiazole-5-carboxylic acid hydroxyamide] displayed an inhibition at 100 µM with MCF7 cells of 88.5%. The “% inhibition HDAC @ 100 μM” value in experiment [1] worked out at 99%.
